Measurements as given in PMC6273584, “Synthesis of Thiazolo[5,4-f]quinazolin-9(8H)-ones as Multi-Target Directed Ligands of Ser/Thr Kinases” (Molecules, 2016).
Where two headings read alike, the source gives them in different places.

How the values were obtained:
[1] = biological target: T1, CDK5/p25 (Homo sapiens, UniProt Q00535); assay: In vitro kinase assay CDK5/p25, [γ-33P]ATP, histone H1 substrate; assay type: biochemical
T1 construct: made in house
Protocol: (§1) It was also tested as positive control and its IC50 values were compared to those obtained for the compounds under study.
(§2) Buffer A: MgCl2 (10 mM), 1 mM ethylene glycol-bis(2-aminoethylether)-N,N,N’,N’- tetraacetic acid (EGTA), 1 mM dithiothreitol (DTT), 25 mM Tris-HCl pH 7.5, 50 μg heparin/mL. Buffer B: β-Glycerophosphate (60 mM), 30 mM p-nitrophenylphosphate, 25 mM 3-(N-morpholino) propanesulfonic acid (Mops) (pH 7.2), 5 mM EGTA, 15 mM MgCl2, 1 mM DTT, 0.1 mM sodium vanadate.
(§3) Blank values were substracted and activities expressed in % of the maximal activity, i.e., in the absence of inhibitors. Controls were performed with appropriate dilutions of dimethylsulfoxide (DMSO). IC50 values were calculated from dose-response curves established by Sigma-Plot graphs. The GSK-3, CK1, DYRK1A and CLK1 peptide substrates were obtained from Proteogenix (Oberhausbergen, France).
(§4) CDK5/p25. (Human, recombinant) was prepared as previously described. […] ATP (3000 Ci/mmol; 10 mCi/mL) in a final volume of 30 μL. After 30 min incubation at 30 °C, 25 μL aliquots of supernatant were spotted onto sheets of P81 phosphocellulose paper (Whatman) and 20 s later, the filters were washed eight times (for at least 5 min each time) in a solution of 10 mL phosphoric acid/L of water. The wet filters were counted in the presence of 1 mL ACS (Amersham, UK) scintillation fluid.

[2] = biological target: CK1δ/ε; assay: In vitro kinase assay CK1δ/ε, CK1-specific peptide substrate; assay type: biochemical, Porcine
Protocol: as §1, §2, §3, §4
CK1δ/ε. (Porcine brain, native) was assayed as described for CDK5/p25 but using the CK1-specific peptide substrate […]pSAYSITA [37].

[3] = biological target: DYRK1A (Rattus norvegicus, UniProt Q63470); assay: In vitro kinase assay DYRK1A, Woodtide substrate; assay type: biochemical
Protocol: as §1, §2, §3, §4

[4] = biological target: GSK-3α/β; assay: In vitro kinase assay GSK-3α/β, GS-1 peptide substrate; assay type: biochemical, Porcine
Protocol: as §1, §2, §3, §4
GSK-3α/β. (Porcine brain, native) was assayed, as described for CDK5/p25 but in buffer A and using a GSK-3 specific substrate (GS-1: […]pSEDEEE) (pS stands for phosphorylated serine).

[5] = biological target: CLK1 (Homo sapiens, UniProt P49759); assay: biochemical
Sequence of CLK1 (P49759 whole entry): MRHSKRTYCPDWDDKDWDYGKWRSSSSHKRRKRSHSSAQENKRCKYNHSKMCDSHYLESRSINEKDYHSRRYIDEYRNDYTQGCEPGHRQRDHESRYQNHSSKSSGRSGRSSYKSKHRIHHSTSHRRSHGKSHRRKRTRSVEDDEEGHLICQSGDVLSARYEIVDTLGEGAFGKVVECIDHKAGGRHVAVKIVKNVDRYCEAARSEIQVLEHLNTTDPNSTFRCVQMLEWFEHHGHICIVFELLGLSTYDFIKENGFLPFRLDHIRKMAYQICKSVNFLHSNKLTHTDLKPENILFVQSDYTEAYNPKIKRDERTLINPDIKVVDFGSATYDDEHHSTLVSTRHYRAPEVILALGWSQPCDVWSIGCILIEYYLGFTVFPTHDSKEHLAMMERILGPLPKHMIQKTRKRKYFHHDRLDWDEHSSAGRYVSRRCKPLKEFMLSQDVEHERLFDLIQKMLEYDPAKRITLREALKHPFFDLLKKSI

[6] = 15 μM ATP, 30 min, 30 °C, triplicate, <50% inhibition at 10 μM = IC50 >10 μM

T1 sequence (Q00535 whole entry): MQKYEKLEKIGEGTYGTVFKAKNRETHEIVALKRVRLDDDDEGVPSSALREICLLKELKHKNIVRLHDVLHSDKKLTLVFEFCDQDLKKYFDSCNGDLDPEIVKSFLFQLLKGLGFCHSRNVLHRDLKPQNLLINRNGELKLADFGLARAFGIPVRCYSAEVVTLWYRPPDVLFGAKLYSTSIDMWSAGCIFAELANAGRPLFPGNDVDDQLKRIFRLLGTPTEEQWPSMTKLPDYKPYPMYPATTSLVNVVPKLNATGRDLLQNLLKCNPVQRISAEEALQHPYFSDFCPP
T1 sequence (Q15078 99-307 partner limits assumed): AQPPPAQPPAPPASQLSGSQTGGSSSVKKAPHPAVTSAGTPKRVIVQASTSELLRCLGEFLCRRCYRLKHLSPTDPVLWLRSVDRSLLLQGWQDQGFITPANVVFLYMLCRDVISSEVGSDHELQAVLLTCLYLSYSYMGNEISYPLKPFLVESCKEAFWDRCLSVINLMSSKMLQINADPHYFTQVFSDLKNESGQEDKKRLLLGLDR

| Structure (SMILES) | IC50 [1] | IC50 [2, 6] | IC50 [3] | IC50 [5] | IC50 [4] | IC50 [4, 6] | IC50 [2] | IC50 ([3]; read-out: DYRK1A IC50) |
| --- | --- | --- | --- | --- | --- | --- | --- | --- |
| COC(=N)c1nc2ccc3ncn(-c4ccc(N(C)C)cc4)c(=O)c3c2s1 [Compound 12m, Methyl 8-(4-dimethylaminophenyl)-9-oxo-8,9-dihydrothiazolo[5,4-f]quinazoline-2-carbimidate] | > 10000 nM | > 10000 nM | > 10000 nM | > 10000 nM |  | > 10000 nM |  |  |
| N=C(OCc1ccccc1)c1nc2ccc3ncn(C4CCC4)c(=O)c3c2s1 [Compound 13f, Benzyl 8-cyclobutyl-9-oxo-8,9-dihydrothiazolo[5,4-f]quinazoline-2-carbimidate] | > 10000 nM | > 10000 nM | 59 nM | 71 nM | 71 nM |  |  |  |
| COC(=N)c1nc2ccc3ncn(-c4ccc(C)cc4)c(=O)c3c2s1 [Compound 12k, Methyl 8-(p-tolyl)-9-oxo-8,9-dihydrothiazolo[5,4-f]quinazoline-2-carbimidate] | > 10000 nM | > 10000 nM | 380 nM | 880 nM | 510 nM |  |  |  |
| COCCCn1cnc2ccc3nc(C#N)sc3c2c1=O [Compound 11c, 8-(3-Methoxypropyl)-9-oxo-8,9-dihydrothiazolo[5,4-f]quinazoline-2-carbonitrile] | > 10000 nM | > 10000 nM | 7700 nM | 1300 nM | 1200 nM |  |  |  |
| COC(=N)c1nc2ccc3ncn(-c4ccc(OC)cc4)c(=O)c3c2s1 [Compound 12l, Methyl 8-(4-methoxyphenyl)-9-oxo-8,9-dihydrothiazolo[5,4-f]quinazoline-2-carbimidate] | > 10000 nM | > 10000 nM | 3000 nM | 7900 nM | 1200 nM |  |  |  |
| COC(=N)c1nc2ccc3ncn(C(C)C)c(=O)c3c2s1 [Compound 12d, Methyl 8-isopropyl-9-oxo-8,9-dihydrothiazolo[5,4-f]quinazoline-2-carbimidate] | 3000 nM |  | 140 nM | 160 nM | 41 nM |  | 5400 nM |  |
| COCCn1cnc2ccc3nc(C#N)sc3c2c1=O [Compound 11b, 8-(2-Methoxyethyl)-9-oxo-8,9-dihydrothiazolo[5,4-f]quinazoline-2-carbonitrile] | > 10000 nM | > 10000 nM | 7800 nM | 4100 nM |  | ≥ 10000 nM |  |  |
| N#Cc1nc2ccc3ncn(C4CC4)c(=O)c3c2s1 [Compound 11a, 8-Cyclopropyl-9-oxo-8,9-dihydrothiazolo[5,4-f]quinazoline-2-carbonitrile] | > 10000 nM | > 10000 nM | 3300 nM | 1100 nM | 3300 nM |  |  |  |
| COC(=N)c1nc2ccc3ncn(C)c(=O)c3c2s1 [Compound 12n, Methyl 8-methyl-9-oxo-8,9-dihydrothiazolo[5,4-f]quinazoline-2-carbimidate] | > 10000 nM | > 10000 nM | 180 nM | 80 nM | 1700 nM |  |  |  |
| COCCCn1cnc2ccc3nc(C(=N)OC)sc3c2c1=O [Compound 12c, Methyl 8-(3-methoxypropyl)-9-oxo-8,9-dihydrothiazolo[5,4-f]quinazoline-2-carbimidate] | > 10000 nM | > 10000 nM | 320 nM | 210 nM | 120 nM |  |  |  |
| COC(=N)c1nc2ccc3ncn(C4CCC4)c(=O)c3c2s1 [Compound 12f, Methyl 8-cyclobutyl-9-oxo-8,9-dihydrothiazolo[5,4-f]quinazoline-2-carbimidate] | > 10000 nM | > 10000 nM | 130 nM | 91 nM | 160 nM |  |  |  |
| CCOC(=N)c1nc2ccc3ncn(C4CCCC4)c(=O)c3c2s1 [Compound 14e, Ethyl 8-cyclopentyl-9-oxo-8,9-dihydrothiazolo[5,4-f]quinazoline-2-carbimidate] | > 10000 nM | > 10000 nM | 230 nM | 780 nM | 29 nM |  |  |  |
| CN(C)n1cnc2ccc3nc(C(=N)OCc4ccccc4)sc3c2c1=O [Compound 13h, Benzyl 8-dimethylamino-9-oxo-8,9-dihydrothiazolo[5,4-f]quinazoline-2-carbimidate] | > 10000 nM | > 10000 nM | 210 nM | 1400 nM | 150 nM |  |  |  |
| COC(=N)c1nc2ccc3ncn(CCN4CCOCC4)c(=O)c3c2s1 [Compound 12j, Methyl 8-(2-morpholinoethyl)-9-oxo-8,9-dihydrothiazolo[5,4-f]quinazoline-2-carbimidate] | > 10000 nM | > 10000 nM | 200 nM | 690 nM | 1200 nM |  |  |  |
| COC(=N)c1nc2ccc3ncn(N(C)C)c(=O)c3c2s1 [Compound 12h, Methyl 8-dimethylamino-9-oxo-8,9-dihydrothiazolo[5,4-f]quinazoline-2-carbimidate] | > 10000 nM | > 10000 nM |  | 990 nM | 300 nM |  |  | 500 nM |
| COc1ccc2c(c1)[nH]c1c(C)nccc12 [Harmine, reference compound] |  |  |  |  |  | > 10000 nM | 1500 nM |  |

Second part, led by results:

| IC50 [1] | IC50 [2, 6] | IC50 [3] | IC50 [5] | IC50 [4] | Structure (SMILES) | IC50 [4, 6] | IC50 [2] | IC50 ([3]; read-out: DYRK1A IC50) |
| --- | --- | --- | --- | --- | --- | --- | --- | --- |
| > 10000 nM | > 10000 nM | 62 nM | 320 nM | 28 nM | N=C(OCc1ccccc1)c1nc2ccc3ncn(C4CCCC4)c(=O)c3c2s1 [Compound 13e, Benzyl 8-cyclopentyl-9-oxo-8,9-dihydrothiazolo[5,4-f]quinazoline-2-carbimidate] |  |  |  |
| > 10000 nM | > 10000 nM | 420 nM | 43 nM | 420 nM | CC(C)OC(=N)c1nc2ccc3ncn(C4CC4)c(=O)c3c2s1 [Compound 15a, Isopropyl 8-cyclopropyl-9-oxo-8,9-dihydrothiazolo[5,4-f]quinazoline-2-carbimidate] |  |  |  |
| > 10000 nM | > 10000 nM | 280 nM | 1300 nM | 83 nM | N=C(OCc1ccccc1)c1nc2ccc3ncn(C4CCCCC4)c(=O)c3c2s1 [Compound 13g, Benzyl 8-cyclohexyl-9-oxo-8,9-dihydrothiazolo[5,4-f]quinazoline-2-carbimidate] |  |  |  |
| > 10000 nM | > 10000 nM | 370 nM | 490 nM | 170 nM | CCOC(=N)c1nc2ccc3ncn(CCCOC)c(=O)c3c2s1 [Compound 14c, Ethyl 8-(3-methoxypropyl)-9-oxo-8,9-dihydrothiazolo[5,4-f]quinazoline-2-carboximidoate] |  |  |  |
| > 10000 nM | > 10000 nM | 160 nM | 480 nM | 110 nM | COCCCn1cnc2ccc3nc(C(=N)OCc4ccccc4)sc3c2c1=O [Compound 13c, Benzyl 8-(3-methoxypropyl)-9-oxo-8,9-dihydrothiazolo[5,4-f]quinazoline-2-carbimidate] |  |  |  |
| > 10000 nM | > 10000 nM | 820 nM | 1900 nM | 1200 nM | CCOC(=N)c1nc2ccc3ncn(CCOC)c(=O)c3c2s1 [Compound 14b, Ethyl 8-(2-methoxyethyl)-9-oxo-8,9-dihydrothiazolo[5,4-f]quinazoline-2-carboximidoate] |  |  |  |
| > 10000 nM | > 10000 nM | 290 nM | 590 nM | 690 nM | COCCn1cnc2ccc3nc(C(=N)OCc4ccccc4)sc3c2c1=O [Compound 13b, Benzyl 8-(2-methoxyethyl)-9-oxo-8,9-dihydrothiazolo[5,4-f]quinazoline-2-carbimidate] |  |  |  |
| > 10000 nM | > 10000 nM | 210 nM | 100 nM | 200 nM | CCOC(=N)c1nc2ccc3ncn(C4CC4)c(=O)c3c2s1 [Compound 14a, Ethyl 8-cyclopropyl-9-oxo-8,9-dihydrothiazolo[5,4-f]quinazoline-2-carbimidate] |  |  |  |
| > 10000 nM | > 10000 nM | 60 nM | 60 nM |  | N=C(OCc1ccccc1)c1nc2ccc3ncn(C4CC4)c(=O)c3c2s1 [Compound 13a, Benzyl 8-cyclopropyl-9-oxo-8,9-dihydrothiazolo[5,4-f]quinazoline-2-carbimidate] | 100 nM |  |  |
| > 10000 nM | > 10000 nM | 370 nM | 340 nM |  | CCOC(=N)c1nc2ccc3ncn(C(C)C)c(=O)c3c2s1 [Compound 14d, Ethyl 8-isopropyl-9-oxo-8,9-dihydrothiazolo[5,4-f]quinazoline-2-carboximidoate] |  |  |  |
